molecular target: T1, recombinant human GST-Syk (Homo sapiens, UniProt P43405); test: Homogeneous Time-Resolved Fluorescence (HTRF) assay for the recombinant human Syk enzyme; type: biochemical; details: recombinant human GST-Syk 5 pM, ATP 25 μM, 10-dose titration 10 μM to 0.508 nM; read-out: rhSYK Activity IC50
T1 construct: purchased Carna Biosciences 08-176
Outline: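 Detection used time-resolved fluorescence 30 min after adding a quench mix (40 mM EDTA, 15 mM Tris pH 7.5, 0.01% Tween 20) containing 2 nM Europium anti-pTyr antibody and 70 nM streptavidin-APC. This followed 45 min of room-temperature peptide phosphorylation by recombinant GST-tagged human Syk.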

SMILES	IC50
Cc1cc(Nc2cc(C(F)(F)F)ccn2)nc(-c2cn(CC(=O)O)nn2)c1 [Example 5.88, [4-(4-methyl-6-{[4-(trifluoromethyl)pyridin-2-yl]amino}pyridin-2-yl)-1H-1,2,3-triazol-1-yl]acetic acid]	52.9 nM
Cc1cc(Nc2cc(C(F)(F)F)ccn2)nc(-c2cn(C3CS(=O)(=O)CC3O)nn2)c1 (centres unmarked) [Example 5.90, 4-[4-(4-methyl-6-{[4-(trifluoromethyl)pyridin-2-yl]amino}pyridin-2-yl)-1H-1,2,3-triazol-1-yl]tetrahydrothiophene-3-ol 1,1-dioxide]	11.5 nM
Cc1cc(Nc2cc(C(F)(F)F)ccn2)nc(-c2cn(CCO)nn2)c1 [Example 5.91, 2-[4-(4-methyl-6-{[4-(trifluoromethyl)pyridin-2-yl]amino}pyridin-2-yl)-1H-1,2,3-triazol-1-yl]ethanol]	8.3 nM
Cc1cc(Nc2cc(C(F)(F)F)ccn2)nc(-c2cn(CC#N)nn2)c1 [Example 5.92, [4-(4-methyl-6-{[4-(trifluoromethyl)pyridin-2-yl]amino}pyridin-2-yl)-1H-1,2,3-triazol-1-yl]acetonitrile]	22 nM
Cc1cc(Nc2cc(C(F)(F)F)ccn2)nc(-c2cn(CCCO)nn2)c1 [Example 5.94, 3-[4-(4-methyl-6-{[4-(trifluoromethyl)pyridin-2-yl]amino}pyridin-2-yl)-1H-1,2,3-triazol-1-yl]propan-1-ol]	474 nM
Cc1cc(Nc2cc(C(F)(F)F)ccn2)nc(-c2cn(CCS(C)(=O)=O)nn2)c1 [Example 5.96, 4-methyl-6-{1-[2-(methylsulfonyl)ethyl]-1H-1,2,3-triazol-4-yl}-N-[4-(trifluoromethyl)pyridin-2-yl]pyridin-2-amine]	47.1 nM
Cc1cc(Nc2cc(C(F)(F)F)ccn2)nc(-c2cn(CC(C)(C)O)nn2)c1 [Example 5.97, 2-methyl-1-[4-(4-methyl-6-{[4-(trifluoromethyl)pyridin-2-yl]amino}pyridin-2-yl)-1H-1,2,3-triazol-1-yl]propan-2-ol]	15 nM
Cc1cc(Nc2nccc(C(F)(F)F)n2)cc(-c2cn(C[C@H](O)CC#N)nn2)c1 [Example 5.98, (3R)-3-hydroxy-4-[4-(3-methyl-5-{[4-(trifluoromethyl)pyrimidin-2-yl]amino}phenyl)-1H-1,2,3-triazol-1-yl]butanenitrile]	20 nM
CCOC(=O)Cn1cc(-c2cc(C)cc(Nc3cc(C(F)(F)F)ccn3)n2)nn1 [Example 5.100, ethyl [4-(4-methyl-6-{[4-(trifluoromethyl)pyridin-2-yl]amino}pyridin-2-yl)-1H-1,2,3-triazol-1-yl]acetate]	27.7 nM
Cc1cc(Nc2cc(C(F)(F)F)ccn2)nc(-c2c[nH]nn2)c1 [Example 5.101, 4-methyl-6-(1H-1,2,3-triazol-4-yl)-N-[4-(trifluoromethyl)pyridin-2-yl]pyridin-2-amine]	25.2 nM
Cc1cc(Nc2cc(C(F)(F)F)ccn2)nc(-c2cn(C[C@H]3CNC(=O)O3)nn2)c1 [Example 5.102, (5R)-5-{[4-(4-methyl-6-{[4-(trifluoromethyl)pyridin-2-yl]amino}pyridin-2-yl)-1H-1,2,3-triazol-1-yl]methyl}-1,3-oxazolidin-2-one]	1.1 nM
Cc1cc(Nc2cc(C(F)(F)F)ccn2)nc(-c2cn(C[C@@H]3CNC(=O)O3)nn2)c1 [Example 5.103, (5S)-5-{[4-(4-methyl-6-{[4-(trifluoromethyl)pyridin-2-yl]amino}pyridin-2-yl)-1H-1,2,3-triazol-1-yl]methyl}-1,3-oxazolidin-2-one]	1.9 nM
Cc1cc(Nc2cc(C(F)(F)F)ccn2)nc(-c2cn(Cc3cnc(C)[nH]3)nn2)c1 [Example 5.104, 4-methyl-6-{1-[(2-methyl-1H-imidazol-5-yl)methyl]-1H-1,2,3-triazol-4-yl}-N-[4-(trifluoromethyl)pyridin-2-yl]pyridin-2-amine]	3.2 nM
Cc1cc(Nc2cc(C(F)(F)F)ccn2)nc(-c2cn(CCc3cn[nH]c3)nn2)c1 [Example 5.105, 4-methyl-6-{1-[2-(1H-pyrazol-4-yl)ethyl]-1H-1,2,3-triazol-4-yl}-N-[4-(trifluoromethyl)pyridin-2-yl]pyridin-2-amine]	2.1 nM
Cc1cc(Nc2cc(C(F)(F)F)ccn2)nc(-c2cn(Cc3[nH]cnc3C)nn2)c1 [Example 5.106, 4-methyl-6-{1-[(4-methyl-1H-imidazol-5-yl)methyl]-1H-1,2,3-triazol-4-yl}-N-[4-(trifluoromethyl)pyridin-2-yl]pyridin-2-amine]	1.6 nM
Cc1cc(Nc2cc(C(F)(F)F)ccn2)nc(-c2cn(CS(N)(=O)=O)nn2)c1 [Example 5.107, 1-[4-(4-methyl-6-{[4-(trifluoromethyl)pyridin-2-yl]amino}pyridin-2-yl)-1H-1,2,3-triazol-1-yl]methanesulfonamide]	5.1 nM
Cc1cc(Nc2cc(C(F)(F)F)ccn2)nc(-c2cn(Cc3c[nH]cn3)nn2)c1 [Example 5.108, 6-[1-(1H-imidazol-4-ylmethyl)-1H-1,2,3-triazol-4-yl]-4-methyl-N-[4-(trifluoromethyl)pyridin-2-yl]pyridin-2-amine]	2.5 nM
Cc1cc(Nc2cc(C(F)(F)F)ccn2)nc(-c2cn(Cc3nnn[nH]3)nn2)c1 [Example 5.109, 4-methyl-6-[1-(1H-tetrazol-5-ylmethyl)-1H-1,2,3-triazol-4-yl]-N-[4-(trifluoromethyl)pyridin-2-yl]pyridin-2-amine]	12.6 nM
Cc1cc(Nc2cc(C(F)(F)F)ccn2)nc(-c2cn(CCOC(N)=O)nn2)c1 [Example 5.110, 2-[4-(4-methyl-6-{[4-(trifluoromethyl)pyridin-2-yl]amino}pyridin-2-yl)-1H-1,2,3-triazol-1-yl]ethyl carbamate]	6.2 nM
Cc1cc(Nc2cc(C(F)(F)F)ccn2)nc(-c2cn(Cc3cc[nH]n3)nn2)c1 [Example 5.111, 4-methyl-6-[1-(1H-pyrazol-3-ylmethyl)-1H-1,2,3-triazol-4-yl]-N-[4-(trifluoromethyl)pyridin-2-yl]pyridin-2-amine]	2.2 nM
Cc1cc(Nc2cc(C(F)(F)F)ccn2)nc(-c2cn(CC3(N)CC3)nn2)c1 [Example 5.112, 6-{1-[(1-aminocyclopropyl)methyl]-1H-1,2,3-triazol-4-yl}-4-methyl-N-[4-(trifluoromethyl)pyridin-2-yl]pyridin-2-amine]	17 nM
Cc1cc(Nc2cc(C(F)(F)F)ccn2)nc(-c2cn(-c3ncccc3Cl)nn2)c1 [Example 6.1, 6-(1-(3-Chloropyridin-2-yl)-1H-1,2,3-triazol-4-yl)-4-methyl-N-(4-(trifluoromethyl)pyridin-2-yl)pyridin-2-amine]	41 nM

Results, then the molecule that gave them:

IC50	SMILES
11.1 nM	Cc1cc(Nc2cc(C(F)(F)F)ccn2)nc(-c2cn(-c3ccc(C(=O)O)cc3)nn2)c1 [Example 7.1, 4-(4-(4-Methyl-6-((4-(trifluoromethyl)pyridin-2-yl)amino)pyridin-2-yl)-1H-1,2,3-triazol-1-yl)benzoic acid]
2.3 nM	Cc1cc(Nc2nccc(C(F)F)n2)cc(-c2cn(CC3=CCC(=O)N=C3)nn2)c1 [Example 7.16, 5-((4-(3-((4-(difluoromethyl)pyrimidin-2-yl)amino)-5-methylphenyl)-1H-1,2,3-triazol-1-yl)methyl)pyridin-2(3H)-one]
16.2 nM	Cc1cc(Nc2ncc(F)c(C(F)F)n2)cc(-c2cn(CC3CNC(=O)O3)nn2)c1 (centres unmarked) [Example 7.36, 5-{[4-(3-{[4-(difluoromethyl)-5-fluoropyrimidin-2-yl]amino}-5-methylphenyl)-1H-1,2,3-triazol-1-yl]methyl}-1,3-oxazolidin-2-one]
14.9 nM	COC(=O)C1(n2cc(-c3cc(C)cc(Nc4cc(C(F)(F)F)ccn4)n3)nn2)CC1 [Example 8.1, Methyl 1-[4-(4-methyl-6-{[4-(trifluoromethyl)pyridin-2-yl]amino}pyridin-2-yl)-1H-1,2,3-triazol-1-yl]cyclopropanecarboxylate]
71.8 nM	CCOC(=O)C1(n2cc(-c3cc(C)cc(Nc4cc(C(F)(F)F)ccn4)n3)nn2)CCC1 [Example 8.2, ethyl 1-[4-(4-methyl-6-{[4-(trifluoromethyl)-pyridin-2-yl]amino}-pyridin-2-yl)-1H-1,2,3-triazol-1-yl]cyclobutane-carboxylate]
54 nM	Cc1cc(Nc2cc(C(F)(F)F)ccn2)nc(-c2cn(C3C=CCCCC3)nn2)c1 (centres unmarked) [Example 9.2, 6-(1-cyclohept-2-en-1-yl-1H-1,2,3-triazol-4-yl)-4-methyl-N-[4-(trifluoromethyl)-pyridin-2-yl]pyridin-2-amine]
313 nM	COC(=O)C1CCC(n2cc(-c3cc(C)cc(Nc4cc(C(F)(F)F)ccn4)n3)nn2)CC1(C)C (centres unmarked) [Example 9.3, methyl 2,2-dimethyl-4-[4-(4-methyl-6-{[4-(trifluoromethyl)pyridin-2-yl]amino}pyridin-2-yl)-1H-1,2,3-triazol-1-yl]cyclohexane-carboxylate]
7220 nM	Cc1cc(Nc2nccc(C(F)(F)F)n2)cc(-c2cn(C3CCC(C(=O)OC(C)(C)C)CC3)nn2)c1 (centres unmarked) [Example 9.4, tert-butyl 4-[4-(3-methyl-5-{[4-(trifluoromethyl)-pyrimidin-2-yl]amino}-phenyl)-1H-1,2,3-triazol-1-yl]cyclohexane-carboxylate]
8.1 nM	Cc1cc(Nc2cc(C(F)(F)F)ccn2)nc(-c2cn([C@H](C)c3ccc(C(=O)O)cc3)nn2)c1 [Example 9.5, 4-{(1R)-1-[4-(4-methyl-6-{[4-(trifluoromethyl)-pyridin-2-yl]amino}pyridin-2-yl)-1H-1,2,3-triazol-1-yl]ethyl}benzoic acid]
78.8 nM	Cc1cc(Nc2cc(C(F)(F)F)ccn2)nc(-c2cn(CC3=CCCCC3)nn2)c1 [Example 9.6, 6-[1-(cyclohex-1-en-1-ylmethyl)-1H-1,2,3-triazol-4-yl]-4-methyl-N-[4-(trifluoromethyl)pyridin-2-yl]pyridin-2-amine]

From patent US9586931B2 (Merck Sharp & Dohme Corp., priority 2012, dated 2017)
